Experimental data as given in patent CN116323625A, “杂环类衍生物、其制备方法及其医药上的用途” (Zhejiang Hisun Pharmaceutical Co Ltd, priority 2021, dated 2023).
pIC50: −log10 of the molar value.

Biological target: T1, KRAS G12D:RAF1 protein interaction [KRAS G12D:RAF1蛋白相互作用] (Homo sapiens, UniProt P01116, G12D)
T1 construct: purchased Cisbio 63ADK000CB21PEG
Test: Inhibition of the KRAS G12D:RAF1 protein interaction (TR-FRET binding assay)
Conditions: in vitro, 10000nM-0.1nM, 4 h at room temperature

T1 sequence (P01116 1-188 isoform P01116-2 G12D): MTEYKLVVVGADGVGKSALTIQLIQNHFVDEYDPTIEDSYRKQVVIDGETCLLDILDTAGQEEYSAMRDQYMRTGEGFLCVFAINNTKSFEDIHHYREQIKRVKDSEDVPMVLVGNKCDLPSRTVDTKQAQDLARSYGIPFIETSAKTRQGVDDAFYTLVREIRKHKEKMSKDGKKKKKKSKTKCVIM

Work on `OCCN1C2CCC1CN(c1nc(OC[C@@]34CCCN3C[C@H](F)C4)nc3c(F)c(-c4cc(O)cc5cccc(F)c45)ncc13)C2` [实施例2, 5-fluoro-4-(8-fluoro-2-(((2R,7aS)-2-fluorotetrahydro-1H-pyrrolizin-7a(5H)-yl)methoxy)-4-(8-(2-hydroxyethyl)-3,8-diazabicyclo[3.2.1]octan-3-yl)pyrido[4,3-d]pyrimidin-7-yl)naphthalen-2-ol] yielded a pIC50 of 6.72.

Work on `O=C([C@H]1CCCN1)N1C2CCC1CN(c1nc(OC[C@@]34CCCN3C[C@H](F)C4)nc3c(F)c(-c4cc(O)cc5cccc(F)c45)ncc13)C2` [实施例3, 4-(8-(D-prolyl)-3,8-diazabicyclo[3.2.1]octan-3-yl)-8-fluoro-7-(8-fluoro-3-hydroxynaphthalen-1-yl)-2-(((2R,7aS)-2-fluorotetrahydro-1H-pyrrolizin-7a(5H)-yl)methoxy)pyrido[4,3-d]pyrimidine] yielded a pIC50 of 6.94.
